The test system of this test is P388 leukemia ip, CD2F1 mice, survival T/C. The test is described as follows: NCI In Vivo Anticancer Drug Screen. Data for tumor model P388 Leukemia (intraperitoneal) in CD2F1 (CDF1) mice. Conditions: endpoint: median survival time, higher = longer survival. A digest of the protocol: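 Mice carrying the transplanted tumor received test compound or vehicle. Survival was recorded in each group, and the value is the treated-group measurement divided by that of the vehicle-treated control group.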

[1] abbreviates: dose: 50.0 mg/kg/injection, schedule: Q01DX005 (ip), vehicle: saline with Tween-80.
[2] abbreviates: dose: 100.0 mg/kg/injection, schedule: Q01DX005 (ip), vehicle: saline with Tween-80.
Where [3] appears, read: dose: 200.0 mg/kg/injection, schedule: Q01DX005 (ip), vehicle: saline with Tween-80.
Where [4] appears, read: dose: 60.0 mg/kg/injection, schedule: Q01DX005 (ip), vehicle: saline with Tween-80.
[5] abbreviates: dose: 120.0 mg/kg/injection, schedule: Q01DX005 (ip), vehicle: saline with Tween-80.
[6] abbreviates: dose: 240.0 mg/kg/injection, schedule: Q01DX005 (ip), vehicle: saline with Tween-80.

Structures are written as SMILES. Inconclusive results and toxic doses are left out. Square brackets hold non-standard residues; d marks the D form. Peptide text beside a SMILES is read from it. * marks the point of attachment. ξ: configuration not given here. ξF = NC(Cc1ccccc1)C(=O)O; Bz = O=C(c1ccccc1)*

Regarding `Cc1c2cc[n+](C)c(C)c2cc2c1[nH]c1ccccc12`, the T/C runs as follows: (dose: 1.56 mg/kg/injection, schedule: Q04DX002 (ip), vehicle: water) 100 % of control; (dose: 3.12 mg/kg/injection, schedule: Q04DX002 (ip), vehicle: water) 115 % of control; (dose: 6.25 mg/kg/injection, schedule: Q04DX002 (ip), vehicle: water) 117 % of control; (dose: 10.0 mg/kg/injection, schedule: Q04DX002 (ip), vehicle: water) 115 % of control; (dose: 12.5 mg/kg/injection, schedule: Q04DX002 (ip), vehicle: water) 118 % of control; (dose: 20.0 mg/kg/injection, schedule: Q04DX002 (ip), vehicle: water) 115 % of control. The T/C reads like this: (dose: 25.0 mg/kg/injection, schedule: Q04DX002 (ip), vehicle: water) 115 % of control; (dose: 40.0 mg/kg/injection, schedule: Q04DX002 (ip), vehicle: water) 115 % of control; (dose: 50.0 mg/kg/injection, schedule: Q04DX002 (ip), vehicle: water) 106 % of control.

As for `CSC1=N[N+]2=C(C)c3ccccc3O[B-]2(c2ccccc2)S1` (stereo not drawn), the T/C is 96 % of control under setting [1], 92 % of control under setting [2] and 87 % of control under setting [3].

For `O=C(Cc1ccc2c(c1)OCO2)c1ccc(O)cc1O`, the T/C was 99 % of control under setting [4], 105 % of control under setting [5] and 98 % of control under setting [6].

Take `CC(C(=O)c1ccc(O)cc1)C1(O)C(=O)Nc2ccccc21` (stereo not drawn): the T/C was 98 % of control under setting [1], 100 % of control under setting [2] and 101 % of control under setting [3].

For `CCCCSc1ccc(NN=O)nc1`, the T/C reads like this: (dose: 1.56 mg/kg/injection, schedule: Q01DX009 (ip), vehicle: water) 118 % of control; (dose: 6.25 mg/kg/injection, schedule: Q01DX009 (ip), vehicle: water) 151 % of control.

`O=C(CNC(=O)c1ccccc1)NCC(=O)NC(Cc1ccccc1)C(=O)O` (stereo not drawn) (Bz-Gly-Gly-[ξF]-OH): the T/C was 96 % of control under setting [1] and 100 % of control under setting [2].

In the case of `O=C(Nc1nn[nH]n1)c1nc(-c2ccccc2)cc(=O)[nH]1`, the T/C was 101 % of control under setting [4], 101 % of control under setting [5] and 86 % of control under setting [6].

For `COC(=O)C12CN(C)CC(C(=O)OC)(C1=O)C(c1ccccn1)N(C)C2c1ccccn1` (stereo not drawn), the T/C is, setting by setting: under setting [4], 100 % of control; under setting [5], 98 % of control; under setting [6], 98 % of control.

As for `C=C1CC2(CC(C)CCC2=C(C)C)OC1=O` (stereo not drawn), the T/C runs as follows: (dose: 100.0 mg/kg/injection, schedule: Q01DX001 (ip), vehicle: saline) 101 % of control; (dose: 200.0 mg/kg/injection, schedule: Q01DX001 (ip), vehicle: saline) 100 % of control; (dose: 400.0 mg/kg/injection, schedule: Q01DX001 (ip), vehicle: saline) 101 % of control.

As to `NC(=O)c1[nH]c(N=Nc2ccc(S(N)(=O)=O)cc2)nc1N`, the T/C was 100 % of control (dose: 100.0 mg/kg/injection, schedule: Q04DX003 (ip), vehicle: Klucel (hydroxypropylcellulose) (HPC)); 101 % of control (dose: 200.0 mg/kg/injection, schedule: Q04DX003 (ip), vehicle: Klucel (hydroxypropylcellulose) (HPC)); 94 % of control (dose: 400.0 mg/kg/injection, schedule: Q04DX003 (ip), vehicle: Klucel (hydroxypropylcellulose) (HPC)).

With `COc1c2ccc(-c3ccccc3)oc-2cc(=O)c1C`, the T/C is 100 % of control (dose: 2.0 mg/kg/injection, schedule: Q01DX005 (ip), vehicle: Klucel + Tween-80); 100 % of control (dose: 4.0 mg/kg/injection, schedule: Q01DX005 (ip), vehicle: Klucel + Tween-80); 109 % of control (dose: 8.0 mg/kg/injection, schedule: Q01DX005 (ip), vehicle: Klucel + Tween-80); 92 % of control (dose: 16.0 mg/kg/injection, schedule: Q01DX005 (ip), vehicle: Klucel + Tween-80).

Turning to `Cc1cc2c(cc1C)n1c(=O)n(C)c(=O)c(C#N)c1n2C`, the T/C (dose: 7.5 mg/kg/injection, schedule: Q01DX005 (ip), vehicle: saline with Tween-80) was 100 % of control and the T/C (dose: 15.0 mg/kg/injection, schedule: Q01DX005 (ip), vehicle: saline with Tween-80) was 101 % of control.

`C[N+]1(C2CCCCC2c2cccc(O)c2)CCCC1` (stereo not drawn): the T/C reads like this: (dose: 0.39 mg/kg/injection, schedule: Q01DX009 (ip), vehicle: saline) 98 % of control; (dose: 0.79 mg/kg/injection, schedule: Q01DX009 (ip), vehicle: saline) 104 % of control; (dose: 1.56 mg/kg/injection, schedule: Q01DX009 (ip), vehicle: saline) 98 % of control.

The values are drawn from PubChem BioAssay AID330 (DTP/NCI, 2004).
